The test system of this experiment is primary rat mixed cortical cells. Kind of experiment: In vitro myelination assay (MBP positive myelin strands, fold myelin pixels above background). Type of experiment: cell-based. Particulars: Rattus norvegicus, relative to baseline of no added compound, read-out: Fold myelin pixels above background; for fold induction at 1 µM: 1.0 μM compound; for fold induction at 10 µM: 10.0 μM compound. The procedure, abridged:
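Myelination read as total MBP-immunopositive strand pixels per well, imaged at 10× after fixation on day 14 and expressed relative to untreated wells, at 1.0 and 10.0 μM. Cells: dissociated postnatal day 1 rat cortex, cultured two weeks with compound, re-dosed at days 6 and 10.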

For the compound `Fc1cc(Nc2ncn(-c3cnccn3)n2)cc(N2CCN(C3COC3)CC2)c1` [Compound 598, N-[3-fluoro-5-[4-(oxetan-3-yl)piperazin-1-yl]phenyl]-1-pyrazin-2-yl-1,2,4-triazol-3-amine], the fold induction at 1 µM lay in the range of 1 to 10 and the fold induction at 10 µM fell in the range of 1 to 10.

With `COc1cc(Nc2ncn(-c3cc(F)cc(F)c3)n2)nc(N2CCN(C3COC3)CC2)c1` [Compound 599, N-[1-(3,5-difluorophenyl)-1,2,4-triazol-3-yl]-4-methoxy-6-[4-(oxetan-3-yl)piperazin-1-yl]pyridin-2-amine], the fold induction at 1 µM fell in the range of 10 to 100 and the fold induction at 10 µM is 10 to 100.

In the case of `Cc1cc(Nc2ncn(-c3cccc(C(F)(F)F)c3)n2)nc(NC2CCOC2)c1` (centres unmarked) [Compound 600, 4-methyl-N2-tetrahydrofuran-3-yl-N6-[1-[3-(trifluoromethyl)phenyl]-1,2,4-triazol-3-yl]pyridine-2,6-diamine], the fold induction at 1 µM lay in the range of 1 to 10 and the fold induction at 10 µM lay in the range of 10 to 100.

With `Fc1cc(F)cc(-n2cnc(Nc3cc(C(F)(F)F)cc(N4CC(N5CCOCC5)C4)n3)n2)c1` [Compound 601, N-[1-(3,5-difluorophenyl)-1,2,4-triazol-3-yl]-6-(3-morpholinoazetidin-1-yl)-4-(trifluoromethyl)pyridin-2-amine], the fold induction at 1 µM lay in the range of 1 to 10 and the fold induction at 10 µM is ≤ 1.

Regarding `Cc1cc(Nc2ncn(-c3cc(F)cc(F)c3)n2)cc(N2CC(N3CCOC(C)(C)C3)C2)c1` [Compound 602, 1-(3,5-difluorophenyl)-N-[3-[3-(2,2-dimethylmorpholin-4-yl)azetidin-1-yl]-5-methyl-phenyl]-1,2,4-triazol-3-amine], the fold induction at 1 µM lay within 1 to 10 and the fold induction at 10 µM fell in the range of 1 to 10.

On to `CCn1cnc(Nc2cc(C)cc(Nc3ncn(-c4ccccc4)n3)c2)n1` [Compound 604, N1-(1-ethyl-1,2,4-triazol-3-yl)-5-methyl-N3-(1-phenyl-1,2,4-triazol-3-yl)benzene-1,3-diamine], for which the fold induction at 1 µM is 10 to 100 and the fold induction at 10 µM is ≤ 1.

As to `Cc1cc(Nc2ncn(-c3cc(F)cc(F)c3)n2)cc(OCc2ccn(C)n2)c1` [Compound 605, 1-(3,5-difluorophenyl)-N-[3-methyl-5-[(1-methylpyrazol-3-yl)methoxy]phenyl]-1,2,4-triazol-3-amine], the fold induction at 1 µM lay in the range of 10 to 100 and the fold induction at 10 µM fell in the range of 10 to 100.

In the case of `Cc1cc(Nc2ncn(-c3ccc(F)cc3)n2)cc(N2CC(N3CCOCC3)C2)c1` [Compound 606, 1-(4-fluorophenyl)-N-[3-methyl-5-(3-morpholinoazetidin-1-yl)phenyl]-1,2,4-triazol-3-amine], the fold induction at 1 µM is 1 to 10 and the fold induction at 10 µM is 1 to 10.

As for `N#Cc1cc(Nc2ncn(-c3ccc(F)c(F)c3)n2)nc(N2CCN(C3COC3)CC2)c1` [Compound 607, 2-[[1-(3,4-difluorophenyl)-1,2,4-triazol-3-yl]amino]-6-[4-(oxetan-3-yl)piperazin-1-yl]pyridine-4-carbonitrile], the fold induction at 1 µM lay in the range of 10 to 100 and the fold induction at 10 µM was in the range of 10 to 100.

Regarding `N#Cc1cc(Nc2ncn(-c3ccccc3)n2)cc(N2CCOCC2)c1` [Compound 608, 3-morpholino-5-[(1-phenyl-1,2,4-triazol-3-yl)amino]benzonitrile], the fold induction at 1 µM fell in the range of 10 to 100 and the fold induction at 10 µM was in the range of 1 to 10.

For `Cc1cc(Nc2ncn(-c3ccccn3)n2)cc(N2CCCN(C3COC3)CC2)c1` [Compound 609, N-[3-methyl-5-[4-(oxetan-3-yl)-1,4-diazepan-1-yl]phenyl]-1-(2-pyridyl)-1,2,4-triazol-3-amine], the fold induction at 1 µM lay in the range of 100 to 1000 and the fold induction at 10 µM lay within 100 to 1000.

For `COc1cc(Nc2ncn(-c3cccc(C(F)(F)F)c3)n2)nc(N2CCN(C3COC3)CC2)c1` [Compound 610, 4-methoxy-6-[4-(oxetan-3-yl)piperazin-1-yl]-N-[1-[3-(trifluoromethyl)phenyl]-1,2,4-triazol-3-yl]pyridin-2-amine], the fold induction at 1 µM lay within 1 to 10 and the fold induction at 10 µM is 1 to 10.

Regarding `Fc1cc(F)cc(-n2cnc(Nc3cc(N4CC(N5CCOCC5)C4)cc(F)n3)n2)c1` [Compound 612, N-[1-(3,5-difluorophenyl)-1,2,4-triazol-3-yl]-6-fluoro-4-(3-morpholinoazetidin-1-yl)pyridin-2-amine], the fold induction at 1 µM is ≤ 1 and the fold induction at 10 µM fell in the range of 10 to 100.

Regarding `Cc1cc(Nc2ncn(-c3cc(F)cc(F)c3)n2)cc(C2(C)CN(C)C(=O)O2)c1` (centres unmarked) [Compound 613, 5-[3-[[1-(3,5-difluorophenyl)-1,2,4-triazol-3-yl]amino]-5-methyl-phenyl]-3,5-dimethyl-oxazolidin-2-one], the fold induction at 1 µM was in the range of 10 to 100 and the fold induction at 10 µM lay in the range of 1 to 10.

`Cc1cc(Nc2ncn(-c3cc(F)cc(F)c3)n2)nc(NC2CCOC2)c1` (centres unmarked) [Compound 614, N6-[1-(3,5-difluorophenyl)-1,2,4-triazol-3-yl]-4-methyl-N2-tetrahydrofuran-3-yl-pyridine-2,6-diamine]: the fold induction at 1 µM fell in the range of 1 to 10 and the fold induction at 10 µM was 1 to 10.

In the case of `Cc1cc(Nc2ncn(-c3ccc(F)c(F)c3)n2)cc(OCC2(C)COC2)c1` [Compound 615, 1-(3,4-difluorophenyl)-N-[3-methyl-5-[(3-methyloxetan-3-yl)methoxy]phenyl]-1,2,4-triazol-3-amine], the fold induction at 1 µM was in the range of 10 to 100 and the fold induction at 10 µM fell in the range of 10 to 100.

`Cc1cc(N2CC(N3CCOCC3)C2)cc(Nc2ncn(-c3cc(F)cc(F)c3)n2)n1` [Compound 616, N-[1-(3,5-difluorophenyl)-1,2,4-triazol-3-yl]-6-methyl-4-(3-morpholinoazetidin-1-yl)pyridin-2-amine]: the fold induction at 1 µM was in the range of 1 to 10 and the fold induction at 10 µM was ≤ 1.

As to `Cc1cc(Nc2ncn(-c3cc(F)cc(F)c3)n2)cc(N2CC(N3CCC(F)CC3)C2)c1` [Compound 617, 1-(3,5-difluorophenyl)-N-[3-[3-(4-fluoro-1-piperidyl)azetidin-1-yl]-5-methyl-phenyl]-1,2,4-triazol-3-amine], the fold induction at 1 µM lay within 10 to 100 and the fold induction at 10 µM was 10 to 100.

For `Cc1cc(Nc2ncn(-c3cc(F)cc(F)c3)n2)cc(N2CC(N3C[C@@H](C)O[C@@H](C)C3)C2)c1` [Compound 618, 1-(3,5-difluorophenyl)-N-[3-[3-[(2R,6S)-2,6-dimethylmorpholin-4-yl]azetidin-1-yl]-5-methyl-phenyl]-1,2,4-triazol-3-amine], the fold induction at 1 µM is 10 to 100 and the fold induction at 10 µM was in the range of 10 to 100.

As to `COCC1CCN(c2cc(C)cc(Nc3ncn(-c4cc(F)cc(F)c4)n3)n2)CC1` [Compound 619, N-[1-(3,5-difluorophenyl)-1,2,4-triazol-3-yl]-6-[4-(methoxymethyl)-1-piperidyl]-4-methyl-pyridin-2-amine], the fold induction at 1 µM was 1 to 10 and the fold induction at 10 µM lay within 1 to 10.

As to `Cc1cc(Nc2ncn(-c3cc(F)cc(F)c3)n2)cc(OC2CCCN(C3COC3)C2)c1` (centres unmarked) [Compound 620, 1-(3,5-difluorophenyl)-N-[3-methyl-5-[[1-(oxetan-3-yl)-3-piperidyl]oxy]phenyl]-1,2,4-triazol-3-amine], the fold induction at 1 µM was in the range of 10 to 100 and the fold induction at 10 µM was 1 to 10.

As for `Fc1cc(-n2cnc(Nc3cc(C(F)F)cc(N4CCN(C5COC5)CC4)n3)n2)ccc1Cl` [Compound 621, N-[1-(4-chloro-3-fluoro-phenyl)-1,2,4-triazol-3-yl]-4-(difluoromethyl)-6-[4-(oxetan-3-yl)piperazin-1-yl]pyridin-2-amine], the fold induction at 1 µM lay in the range of 10 to 100 and the fold induction at 10 µM was 1 to 10.

In the case of `Cc1cc(Nc2ncn(-c3ccc(F)cc3)n2)cc(N2CCN(C3COC3)CC2)c1` [Compound 622, 1-(4-fluorophenyl)-N-[3-methyl-5-[4-(oxetan-3-yl)piperazin-1-yl]phenyl]-1,2,4-triazol-3-amine], the fold induction at 1 µM fell in the range of 1 to 10 and the fold induction at 10 µM lay within 1 to 10.

For the compound `COc1ccc(-n2cnc(Nc3cc(C)cc(N4CCN(C5COC5)CC4)c3)n2)cc1F` [Compound 624, 1-(3-fluoro-4-methoxy-phenyl)-N-[3-methyl-5-[4-(oxetan-3-yl)piperazin-1-yl]phenyl]-1,2,4-triazol-3-amine], the fold induction at 1 µM is 10 to 100 and the fold induction at 10 µM is ≤ 1.

For `COCc1cc(Nc2ncn(-c3cccc(C(F)(F)F)c3)n2)nc(N2CCN(C3COC3)CC2)c1` [Compound 625, 4-(methoxymethyl)-6-[4-(oxetan-3-yl)piperazin-1-yl]-N-[1-[3-(trifluoromethyl)phenyl]-1,2,4-triazol-3-yl]pyridin-2-amine], the fold induction at 1 µM was in the range of 1 to 10 and the fold induction at 10 µM fell in the range of 10 to 100.

As for `CC(=O)N1CCC(Oc2cc(C)cc(Nc3ncn(-c4ccc(F)c(F)c4)n3)c2)CC1` [Compound 626, 1-[4-[3-[[1-(3,4-difluorophenyl)-1,2,4-triazol-3-yl]amino]-5-methyl-phenoxy]-1-piperidyl]ethanone], the fold induction at 1 µM lay in the range of 10 to 100 and the fold induction at 10 µM is ≤ 1.

Consider `Cc1cc(Nc2ncn(-c3ccc(F)c(F)c3)n2)cc(OCC2CCOCC2)c1` [Compound 627, 1-(3,4-difluorophenyl)-N-[3-methyl-5-(tetrahydropyran-4-ylmethoxy)phenyl]-1,2,4-triazol-3-amine], for which the fold induction at 1 µM lay in the range of 1 to 10 and the fold induction at 10 µM lay in the range of 10 to 100.

With `Cc1cc(Nc2ncn(-c3cc(F)cc(F)c3)n2)cc(N2C[C@H]3C[C@@H]2CO3)c1` [Compound 628, 1-(3,5-difluorophenyl)-N-[3-methyl-5-[(1R,4R)-2-oxa-5-azabicyclo[2.2.1]heptan-5-yl]phenyl]-1,2,4-triazol-3-amine], the fold induction at 1 µM was 10 to 100 and the fold induction at 10 µM fell in the range of 1 to 10.

The record behind these values is US10766869B2, “Triazoles for the treatment of demyelinating dieases” (Vertex Pharmaceuticals Incorporated, priority 2015, dated 2020).
